# Test system: MV-4-11 cells
# Experiment: Gene expression microarray analysis (Affymetrix PrimeView) and GSEA
# Assay type: cell-based, human
# Set-up: RFU PODN (11730768_x_at) / Fold change /veh PODN (11730768_x_at) / RFU LINC00158 (11744669_a_at) / Fold change /veh LINC00158 (11744669_a_at) / RFU DUSP10 (11751237_a_at) / Fold change /veh DUSP10 (11751237_a_at) / RFU ID3 (11757404_x_at) / Fold change /veh ID3 (11757404_x_at) / RFU PLEKHG5 (11737974_s_at) / Fold change /veh PLEKHG5 (11737974_s_at) / RFU LRRC4B (11730491_at) / Fold change /veh LRRC4B (11730491_at) / RFU GIMAP4 (11747438_a_at) / Fold change /veh GIMAP4 (11747438_a_at) / RFU KRT8 (11758183_x_at) / Fold change /veh KRT8 (11758183_x_at) / RFU CNN1 (11734310_a_at) / Fold change /veh CNN1 (11734310_a_at) / RFU VPS37D (11726825_at) / Fold change /veh VPS37D (11726825_at) / RFU C10orf10 (11716522_x_at) / Fold change /veh C10orf10 (11716522_x_at) / RFU KIR2DL2 /// KIR2DL4 /// KIR2DL5A /// KIR2DL5B /// KIR2DS1 /// KIR2DS2 /// KIR2DS3 /// KIR2DS4 /// KIR3DL3 /// KIR3DL3 /// KIR3DS1 (11738374_at) / Fold change /veh KIR2DL2 /// KIR2DL4 /// KIR2DL5A /// KIR2DL5B /// KIR2DS1 /// KIR2DS2 /// KIR2DS3 /// KIR2DS4 /// KIR3DL3 /// KIR3DL3 /// KIR3DS1 (11738374_at) / RFU C1QL1 (11718748_at) / Fold change /veh C1QL1 (11718748_at) / RFU TMPRSS4 (11747572_a_at) / Fold change /veh TMPRSS4 (11747572_a_at) / RFU HAMP (11756126_x_at) / Fold change /veh HAMP (11756126_x_at) / RFU RNFT2 (11725882_a_at) / Fold change /veh RNFT2 (11725882_a_at) / RFU NR4A2 (11747474_a_at) / Fold change /veh NR4A2 (11747474_a_at) / RFU ABCC12 (11746883_a_at) / Fold change /veh ABCC12 (11746883_a_at) / RFU TMEM136 (11760407_x_at) / Fold change /veh TMEM136 (11760407_x_at) / RFU CLDN22 /// WWC2 (11732394_at) / Fold change /veh CLDN22 /// WWC2 (11732394_at) / RFU HLA-DPB1 (11760878_x_at) / Fold change /veh HLA-DPB1 (11760878_x_at) / RFU SPINT1 (11716480_a_at) / Fold change /veh SPINT1 (11716480_a_at) / RFU GAP43 (11754022_s_at) / Fold change /veh GAP43 (11754022_s_at) / RFU A4GNT (11735810_at) / Fold change /veh A4GNT (11735810_at) / RFU PRB3 (11715151_x_at) / Fold change /veh PRB3 (11715151_x_at) / RFU TUBB4B (11761932_at) / Fold change /veh TUBB4B (11761932_at) / RFU CAPN14 (11732068_a_at) / Fold change /veh CAPN14 (11732068_a_at) / RFU TMCC2 (11721928_a_at) / Fold change /veh TMCC2 (11721928_a_at) / RFU IRGQ (11745062_a_at) / Fold change /veh IRGQ (11745062_a_at) / RFU FAM174B (11720279_a_at) / Fold change /veh FAM174B (11720279_a_at) / RFU TMPRSS4 (11748680_a_at) / Fold change /veh TMPRSS4 (11748680_a_at) / RFU FAM212B (11763350_a_at) / Fold change /veh FAM212B (11763350_a_at) / RFU PLEKHG5 (11743358_a_at) / Fold change /veh PLEKHG5 (11743358_a_at) / RFU ZSCAN30 (11745921_a_at) / Fold change /veh ZSCAN30 (11745921_a_at) / RFU CMKLR1 (11741424_a_at) / Fold change /veh CMKLR1 (11741424_a_at) / RFU LOC101060620 /// MAPK8IP1 (11723275_at) / Fold change /veh LOC101060620 /// MAPK8IP1 (11723275_at) / RFU SPTSSB (11747773_x_at) / Fold change /veh SPTSSB (11747773_x_at) / RFU PRSS12 (11739890_at) / Fold change /veh PRSS12 (11739890_at) / RFU BIN1 (11741810_x_at) / Fold change /veh BIN1 (11741810_x_at) / RFU WNT11 (11732464_a_at) / Fold change /veh WNT11 (11732464_a_at) / RFU C10orf10 (11716521_a_at) / Fold change /veh C10orf10 (11716521_a_at) / RFU C5orf56 (11738089_at) / Fold change /veh C5orf56 (11738089_at) / RFU CYB561 (11721691_x_at) / Fold change /veh CYB561 (11721691_x_at) / RFU ANKRD19P (11752326_a_at) / Fold change /veh ANKRD19P (11752326_a_at) / RFU OR2T12 /// OR2T33 /// OR2T8 (11738714_s_at) / Fold change /veh OR2T12 /// OR2T33 /// OR2T8 (11738714_s_at) / RFU VCAN (11748164_a_at) / Fold change /veh VCAN (11748164_a_at) / RFU JSRP1 (11732532_at) / Fold change /veh JSRP1 (11732532_at) / RFU KRTAP10-11 (11738290_x_at) / Fold change /veh KRTAP10-11 (11738290_x_at) / RFU MYO3A (11730013_a_at) / Fold change /veh MYO3A (11730013_a_at) / RFU EBF3 (11725865_a_at) / Fold change /veh EBF3 (11725865_a_at) / RFU CAMK2N1 (11719241_x_at) / Fold change /veh CAMK2N1 (11719241_x_at) / RFU C5orf56 (11738088_a_at) / Fold change /veh C5orf56 (11738088_a_at) / RFU OLFML3 (11715873_a_at) / Fold change /veh OLFML3 (11715873_a_at) / RFU LOC100653217 /// NTM (11731650_a_at) / Fold change /veh LOC100653217 /// NTM (11731650_a_at) / RFU MAPK11 (11762145_a_at) / Fold change /veh MAPK11 (11762145_a_at) / RFU FIZ1 (11724087_x_at) / Fold change /veh FIZ1 (11724087_x_at) / RFU OASL (11726364_x_at) / Fold change /veh OASL (11726364_x_at) / RFU SOX15 (11748057_x_at) / Fold change /veh SOX15 (11748057_x_at) / RFU CD79A (11719716_a_at) / Fold change /veh CD79A (11719716_a_at) / RFU HIST1H1D (11736915_at) / Fold change /veh HIST1H1D (11736915_at) / RFU CASKIN2 (11723855_a_at) / Fold change /veh CASKIN2 (11723855_a_at) / RFU LOC730098 (11760151_x_at) / Fold change /veh LOC730098 (11760151_x_at) / RFU OR4N2 (11742367_at) / Fold change /veh OR4N2 (11742367_at) / RFU PRRT2 (11749266_a_at) / Fold change /veh PRRT2 (11749266_a_at) / RFU SNX32 (11753110_a_at) / Fold change /veh SNX32 (11753110_a_at) / RFU CDHR5 (11726645_a_at) / Fold change /veh CDHR5 (11726645_a_at) / RFU RCAN1 (11760418_a_at) / Fold change /veh RCAN1 (11760418_a_at) / RFU FAM167A (11723789_a_at) / Fold change /veh FAM167A (11723789_a_at) / RFU FAM26E (11764081_at) / Fold change /veh FAM26E (11764081_at) / RFU ISYNA1 (11749810_s_at) / Fold change /veh ISYNA1 (11749810_s_at) / RFU ACY1 (11761880_at) / Fold change /veh ACY1 (11761880_at) / RFU 11764098_at / Fold change /veh 11764098_at / RFU SAMD14 (11745864_x_at) / Fold change /veh SAMD14 (11745864_x_at) / RFU NPB (11741838_a_at) / Fold change /veh NPB (11741838_a_at) / RFU TMPRSS6 (11731388_a_at) / Fold change /veh TMPRSS6 (11731388_a_at) / RFU KRTAP10-2 (11738614_at) / Fold change /veh KRTAP10-2 (11738614_at) / RFU ARHGAP8 /// PRR5-ARHGAP8 (11727945_x_at) / Fold change /veh ARHGAP8 /// PRR5-ARHGAP8 (11727945_x_at) / RFU KRTAP5-7 /// NADSYN1 (11734609_at) / Fold change /veh KRTAP5-7 /// NADSYN1 (11734609_at) / RFU RASL12 (11751679_a_at) / Fold change /veh RASL12 (11751679_a_at) / RFU CDKN2B (11736163_a_at) / Fold change /veh CDKN2B (11736163_a_at) / RFU PRF1 (11729649_at) / Fold change /veh PRF1 (11729649_at) / RFU, ZNF638 /// ZNF638-IT1 / Fold change vs veh, ZNF638 /// ZNF638-IT1 / RFU, PANK3 / Fold change vs veh, PANK3 / RFU, SH3YL1 / Fold change vs veh, SH3YL1 / RFU, ZEB2 / Fold change vs veh, ZEB2 / RFU, NRIP1 / Fold change vs veh, NRIP1 / RFU, PTTG1IP / Fold change vs veh, PTTG1IP / RFU, CAPN2 / Fold change vs veh, CAPN2 / RFU, MED14 / Fold change vs veh, MED14 / RFU, SNORA58 / Fold change vs veh, SNORA58 / RFU, C1orf63 / Fold change vs veh, C1orf63 / RFU, LRRFIP1 / Fold change vs veh, LRRFIP1 / RFU, NDUFAF7 / Fold change vs veh, NDUFAF7 / RFU, SLC12A2 / Fold change vs veh, SLC12A2 / RFU, IBTK / Fold change vs veh, IBTK / RFU, ESF1 / Fold change vs veh, ESF1 / Fold change vs veh, TMEM50B / RFU, TAOK1 / Fold change vs veh, TAOK1 / RFU, ACBD3 / Fold change vs veh, ACBD3 / RFU, TMA16 / Fold change vs veh, TMA16 / RFU, RWDD3 / Fold change vs veh, RWDD3 / RFU, BCAT1 / Fold change vs veh, BCAT1 / RFU, EDEM3 / Fold change vs veh, EDEM3 / RFU, TMEM33 / Fold change vs veh, TMEM33 / RFU, WDR75 / Fold change vs veh, WDR75 / RFU, AHCTF1 / Fold change vs veh, AHCTF1 / RFU, TFRC / Fold change vs veh, TFRC / RFU, ZDHHC17 / Fold change vs veh, ZDHHC17 / RFU, NOM1 / Fold change vs veh, NOM1 / RFU, ARL8B / Fold change vs veh, ARL8B / RFU, ZBTB11 / Fold change vs veh, ZBTB11 / RFU, TAMM41 / Fold change vs veh, TAMM41 / RFU, KIAA1704 /// LOC100996395 / Fold change vs veh, KIAA1704 /// LOC100996395 / RFU, ING1 / Fold change vs veh, ING1 / RFU, TRMT61B / Fold change vs veh, TRMT61B / RFU, FUBP3 / Fold change vs veh, FUBP3 / RFU, TP53 / Fold change vs veh, TP53 / RFU, TNKS2 / Fold change vs veh, TNKS2 / RFU, ZFP14 / Fold change vs veh, ZFP14 / RFU, ACTR2 / Fold change vs veh, ACTR2 / RFU, PPP3R1 / Fold change vs veh, PPP3R1 / RFU, PIK3R1 / Fold change vs veh, PIK3R1 / RFU, HNRNPA1 / Fold change vs veh, HNRNPA1 / RFU, RNF170 / Fold change vs veh, RNF170 / RFU, ZNF28 / Fold change vs veh, ZNF28 / RFU, RNGTT / Fold change vs veh, RNGTT / RFU, OGT / Fold change vs veh, OGT / RFU, BRD1 / Fold change vs veh, BRD1 / RFU, MARS / Fold change vs veh, MARS / RFU, ZNF655 / Fold change vs veh, ZNF655 / RFU, FAHD1 / Fold change vs veh, FAHD1 / RFU, BDP1 / Fold change vs veh, BDP1 / RFU, LRRCC1 / Fold change vs veh, LRRCC1 / RFU, ARID1A / Fold change vs veh, ARID1A / RFU, ZNF146 / Fold change vs veh, ZNF146 / RFU, ZNF330 / Fold change vs veh, ZNF330 / RFU, GPN3 / Fold change vs veh, GPN3 / RFU, C9orf123 / Fold change vs veh, C9orf123 / RFU, N4BP2L2 / Fold change vs veh, N4BP2L2 / RFU, ARFIP1 / Fold change vs veh, ARFIP1 / RFU, FAM179B / Fold change vs veh, FAM179B / RFU, BCL10 / Fold change vs veh, BCL10 / RFU, UHRF1BP1L / Fold change vs veh, UHRF1BP1L / RFU, BET1 / Fold change vs veh, BET1 / RFU, CNOT2 / Fold change vs veh, CNOT2 / RFU, ZNF268 / Fold change vs veh, ZNF268 / Fold change vs veh, ZNF507 / RFU, DGCR2 / Fold change vs veh, DGCR2 / RFU, WDSUB1 / Fold change vs veh, WDSUB1 / Fold change vs veh, HSP90B1 /// MIR3652 / RFU, ADSS / Fold change vs veh, ADSS / RFU, GK / Fold change vs veh, GK / RFU, ZNF148 / Fold change vs veh, ZNF148 / RFU, TAF9 / Fold change vs veh, TAF9 / RFU, SLC1A5 / Fold change vs veh, SLC1A5 / RFU, SLMO2 / Fold change vs veh, SLMO2 / RFU, ABCC4 / Fold change vs veh, ABCC4 / RFU, LOC101060439 /// RAP1B / Fold change vs veh, LOC101060439 /// RAP1B / RFU, RFX7 / Fold change vs veh, RFX7 / RFU, GTPBP10 / Fold change vs veh, GTPBP10 / RFU, CNEP1R1 / Fold change vs veh, CNEP1R1 / RFU, BIVM-ERCC5 /// ERCC5 / Fold change vs veh, BIVM-ERCC5 /// ERCC5 / RFU, ILF3 / Fold change vs veh, ILF3 / RFU 11762660_at / Fold change /veh 11762660_at / RFU VCAN (11757783_s_at) / Fold change /veh VCAN (11757783_s_at) / RFU DDX43 (11728927_at) / Fold change /veh DDX43 (11728927_at) / RFU KRT8 (11758188_x_at) / Fold change /veh KRT8 (11758188_x_at) / RFU NKD1 (11759106_at) / Fold change /veh NKD1 (11759106_at) / RFU SRD5A1 (11742802_a_at) / Fold change /veh SRD5A1 (11742802_a_at) / RFU TPSAB1 /// TPSB2 (11721975_s_at) / Fold change /veh TPSAB1 /// TPSB2 (11721975_s_at) / RFU GSTM3 (11746129_a_at) / Fold change /veh GSTM3 (11746129_a_at) / RFU IL23R (11737362_x_at) / Fold change /veh IL23R (11737362_x_at) / RFU TMEM51 (11727254_a_at) / Fold change /veh TMEM51 (11727254_a_at) / RFU PIWIL2 (11732686_x_at) / Fold change /veh PIWIL2 (11732686_x_at) / RFU ORM1 (11744905_x_at) / Fold change /veh ORM1 (11744905_x_at) / RFU CCDC152 (11743942_at) / Fold change /veh CCDC152 (11743942_at) / RFU ECM1 (11717891_a_at) / Fold change /veh ECM1 (11717891_a_at) / RFU IL23R (11748794_a_at) / Fold change /veh IL23R (11748794_a_at) / RFU TNFAIP8L3 (11732012_x_at) / Fold change /veh TNFAIP8L3 (11732012_x_at) / RFU MBOAT4 (11741988_at) / Fold change /veh MBOAT4 (11741988_at) / RFU 11764193_at / Fold change /veh 11764193_at / RFU TMEM53 (11763286_at) / Fold change /veh TMEM53 (11763286_at) / RFU MAGEB2 (11727129_at) / Fold change /veh MAGEB2 (11727129_at) / RFU TMEM200A (11744735_a_at) / Fold change /veh TMEM200A (11744735_a_at) / RFU CCDC152 (11751479_a_at) / Fold change /veh CCDC152 (11751479_a_at) / RFU FAM211A (11726209_a_at) / Fold change /veh FAM211A (11726209_a_at) / RFU RGS16 (11746705_a_at) / Fold change /veh RGS16 (11746705_a_at) / RFU VCAN (11755009_s_at) / Fold change /veh VCAN (11755009_s_at) / RFU RHOB (11743442_s_at) / Fold change /veh RHOB (11743442_s_at) / RFU RGS16 (11720943_a_at) / Fold change /veh RGS16 (11720943_a_at) / RFU RGS16 (11720944_at) / Fold change /veh RGS16 (11720944_at) / RFU, VPS4B / Fold change vs veh, VPS4B / RFU, CREB1 / Fold change vs veh, CREB1 / RFU, DNAJC13 / Fold change vs veh, DNAJC13 / RFU, GNAQ / Fold change vs veh, GNAQ / RFU, CDK5R1 / Fold change vs veh, CDK5R1 / RFU, ZRANB3 / Fold change vs veh, ZRANB3 / RFU, CUL4A / Fold change vs veh, CUL4A / RFU, CCNY / Fold change vs veh, CCNY / RFU, UFL1 / Fold change vs veh, UFL1 / RFU, COG3 / Fold change vs veh, COG3 / RFU, DIAPH2 / Fold change vs veh, DIAPH2 / RFU, SKA2 / Fold change vs veh, SKA2 / RFU, AFF3 / Fold change vs veh, AFF3 / RFU, LMF1 / Fold change vs veh, LMF1 / RFU, IPO11 / Fold change vs veh, IPO11 / RFU, DFFB / Fold change vs veh, DFFB / RFU, FOXP1 / Fold change vs veh, FOXP1 / RFU, CARD8 / Fold change vs veh, CARD8 / RFU, STRN3 / Fold change vs veh, STRN3 / RFU, ADK / Fold change vs veh, ADK / RFU, RASSF2 / Fold change vs veh, RASSF2 / RFU, WIPF1 / Fold change vs veh, WIPF1 / RFU, LARP1B / Fold change vs veh, LARP1B / RFU, RASA1 / Fold change vs veh, RASA1 / RFU, RB1 / Fold change vs veh, RB1 / RFU, PPFIA1 / Fold change vs veh, PPFIA1 / RFU, MAT2A / Fold change vs veh, MAT2A / RFU, CCT5 / Fold change vs veh, CCT5 / RFU, WDR92 / Fold change vs veh, WDR92 / RFU, CUX1 / Fold change vs veh, CUX1 / RFU, TTC7A / Fold change vs veh, TTC7A / RFU, TMEM135 / Fold change vs veh, TMEM135 / RFU, DEPTOR / Fold change vs veh, DEPTOR / RFU, CPM / Fold change vs veh, CPM / RFU, DNAJB6 / Fold change vs veh, DNAJB6 / RFU, CACNA2D3 / Fold change vs veh, CACNA2D3 / RFU, DTX4 / Fold change vs veh, DTX4 / RFU, TFCP2 / Fold change vs veh, TFCP2 / RFU, GMCL1 /// GMCL1P1 / Fold change vs veh, GMCL1 /// GMCL1P1 / RFU, AEBP2 / Fold change vs veh, AEBP2 / RFU, SNHG1 /// SNORD22 /// SNORD25 /// SNORD26 /// SNORD27 /// SNORD28 /// SNORD29 /// SNORD31 / Fold change vs veh, SNHG1 /// SNORD22 /// SNORD25 /// SNORD26 /// SNORD27 /// SNORD28 /// SNORD29 /// SNORD31 / Fold change (Aza/veh), C12orf56 (ProbeSet 11735607_a_at) / Fold change (ACY-1035/veh), C12orf56 (ProbeSet 11735607_a_at) / Fold change (Aza/veh), FGFR1OP (ProbeSet 11751329_s_at) / Fold change (ACY-1035/veh), FGFR1OP (ProbeSet 11751329_s_at) / Fold change (Aza/veh), VPS36 (ProbeSet 11739960_a_at) / Fold change (ACY-1035/veh), VPS36 (ProbeSet 11739960_a_at) / RFU SYPL1 (11715823_x_at) / Fold change /veh SYPL1 (11715823_x_at) / RFU IGFBP7 (11715501_s_at) / Fold change /veh IGFBP7 (11715501_s_at) / RFU REEP3 (11722064_at) / Fold change /veh REEP3 (11722064_at) / RFU IGLL1 (11728026_x_at) / Fold change /veh IGLL1 (11728026_x_at): dose or concentration left out as unconfirmed
# Details: MV-4-11 cells, 48 hours
compound,measurement,value
Nc1ccc(-c2cccs2)cc1NC(=O)c1ccc2c(c1)cc(C1CC1)n2CCN1CCOCC1 [ACY-1035],RFU CYB561 (11721691_x_at),11.94 RFU

# Reference: article PMC5218480 (PLoS ONE, 2017)
